{"source": "ChEMBL document CHEMBL5537152", "about": "“Targeted Degradation of PCSK9 In Vivo by Autophagy-Tethering Compounds” (J Med Chem, 2024)", "key": {"[1]": {"test_system": "Mus musculus", "assay": "Synergistic antiatherosclerotic activity in hypercholesterolemic ApoE-/- mouse model assessed as decrease in plasma LDL-C level at 15 mg/kg, ip administered daily for 3 weeks", "format": "functional", "design": "scale not given: the % may be the effect or the level left"}, "[2]": {"test_system": "Mus musculus", "assay": "Antiatherosclerotic activity in hypercholesterolemic ApoE-/- mouse model assessed as decrease in plasma LDL-C level at 15 mg/kg/day, ip measured after 21 days relative to control", "format": "functional", "conditions": "time 21 day"}}, "data": [{"compound": "CCC(C)(C)C(=O)O[C@H]1C[C@@H](C)C=C2C=C[C@H](C)[C@H](CC[C@@H]3C[C@@H](O)CC(=O)O3)[C@H]21", "note": "[SIMVASTATIN]", "values": [{"measurement": "Activity", "setting": "[1]", "value": 23.59, "unit": "%"}, {"measurement": "Efficacy", "setting": "[2]", "value": 23.59, "unit": "%"}]}]}
